According to patent US11179412B2, “Methods of treating conditions involving elevated inflammatory response” (University of Pittsburgh—Of the Commonwealth System of …, priority 2017, dated 2021):

Columns and labels:
[1] = system: STING activation (IFNβ release) in pPBMCs; assay: IFNβ release ELISA, primary peripheral blood mononuclear cells (pPBMCs); format: cell-based; details: human pPBMCs; 3′3′-cGAMP 10 μg/ml, 16 hours; compound 10 μM
Protocol: (§1) Macrophages or monocytes were treated with 3′3′-cGAMP (10 μg/ml, Invitrogen) for 16 hours in the absence or presence of one compound (10 μM) from the Target-selective Inhibitory Library (#L3500, Selleck Chemicals). Commercially available enzyme-linked immunosorbent assay (ELISA) kits were used to measure the concentrations of mouse IFNβ (Thermo Fisher Scientific) or human IFNβ (Thermo Fisher Scientific) in culture medium according to the manufacturer's instructions.

[2] = system: STING activation (IFNβ release) in THP1 cells; assay: IFNβ release ELISA, THP1 cells; format: cell-based, human; details: STING ligands 10 μg/ml, inhibitor 10 μM, 16 hours
Protocol: as §1

IFNβ mRNA in THP1 cells = assay: IFNβ mRNA Q-PCR, THP1 cells; format: cell-based, human; details: STING ligands 10 μg/ml, inhibitor 10 μM, 16 hours
Protocol: Total RNA was extracted using QIAGEN RNeasy Plus Kit according to the manufacturer's instructions. First-strand cDNA was synthesized from 1 μg of RNA using the iScript cDNA Synthesis kit (#1708890, Bio-Rad). Briefly, 20 μl reactions were prepared by combining 4 μl iScript Select reaction mix, 2 μl gene-specific enhancer solution, 1 μl reverse transcriptase, 1 μl gene-specific assay pool (20×, 2 μM), and 12 μl RNA diluted in RNase-free water. Quantitative real-time PCR was carried out using synthesized cDNA, primers, and SsoFast EvaGreen Supermix (#172-5204, Bio-Rad). The expression of target genes was calculated using the ddCt method relative to the expression of a house-keeping gene, β-actin. Data shown are the relative quantity (RQ), with RQ of the control cells set to one.

[3] = system: receptor tyrosine kinase phosphorylation in iBMDMs; assay: Proteome Profiler phospho-RTK array, iBMDMs; format: cell-based, mouse; details: 3′3′-cGAMP or c-di-AMP 10 μg/ml, 16 hours, LDK378 10 μM
Excerpt: The Proteome Profiler Mouse XL Cytokine Array Kit (#ARY028) and the Proteome Profiler Mouse Phospho-RTK Array Kit (#ARY014) are membrane-based sandwich immunoassays. Captured antibodies spotted in duplicate on nitrocellulose membranes bind to specific target proteins present in the sample (Step 1). Captured proteins are detected with biotinylated detection antibodies (Step 2) and then visualized using chemiluminescent detection reagents (Step 3). The signal produced is proportional to the amount of analyte bound. The intensities of bands were analyzed with Quick Spots Image Analysis Software (Western Vision Software, http://www.wvision.com/QuickSpots.html).

Question: Which “3′3′-cGAMP-induced IFNβ release” value [1] does the source give for `Cc1cc(Nc2ncc(Cl)c(Nc3ccccc3S(=O)(=O)C(C)C)n2)c(OC(C)C)cc1C1CCNCC1` [LDK378, 5-chloro-N^2-(2-isopropoxy-5-methyl-4-(piperidin-4-yl)phenyl)-N^4-[2-(propane-2-sulfonyl)-phenyl]-pyrimidine-2,4-diamine] here?
Answer: The value was “confirmed their inhibitory properties”.

Question: What about the “IFNβ release induced by STING ligands” value [2] of the same compound?
Answer: The value was “inhibited”.

Question: And the “STING ligand-induced IFNβ mRNA expression” value (IFNβ mRNA in THP1 cells)?
Answer: Its value is “attenuation”.

Question: What about the “STING ligand-induced upregulated phosphorylation of various RTKs, including EGFR” value [3] of the same compound?
Answer: Its value is “impaired”.
